{"source": "patent US20230233537A1", "about": "“Compositions and Kits of Parts Comprising N,N-Dimethyltryptamine and Harmine and Their Use in Therapy” (University of Zürich, priority 2020, published 2023)", "key": {"[1]": {"assay": "aqueous solubility of DMT and harmine forms", "conditions": "for solubility: water, 25 °C"}, "[2]": {"assay": "local tolerability on nasal or oral mucosa (burning sensation)", "conditions": "for burning sensation on nasal application: intranasal"}, "[3]": {"assay": "combined intranasal/buccal study (parenteral pharmahuasca): DMT and harmine concentrations in plasma", "conditions": "for bioavailability (area under the curve; AUC) compared to oral administration: DMT fumarate intranasal, harmine HCl buccal; for variation of peak plasma concentrations (cmax), extensive vs. poor metabolizers, factor: 150 mg buccal harmine HCl, up to 50 mg incremental intranasal DMT fumarate"}, "[4]": {"assay": "buccal / transmucosal absorption of DMT forms", "conditions": "in vivo"}, "[5]": {"molecular_target": "T1, monoamine oxidase A (MAO-A) (Homo sapiens, UniProt P21397)", "T1 sequence (P21397 1-527)": "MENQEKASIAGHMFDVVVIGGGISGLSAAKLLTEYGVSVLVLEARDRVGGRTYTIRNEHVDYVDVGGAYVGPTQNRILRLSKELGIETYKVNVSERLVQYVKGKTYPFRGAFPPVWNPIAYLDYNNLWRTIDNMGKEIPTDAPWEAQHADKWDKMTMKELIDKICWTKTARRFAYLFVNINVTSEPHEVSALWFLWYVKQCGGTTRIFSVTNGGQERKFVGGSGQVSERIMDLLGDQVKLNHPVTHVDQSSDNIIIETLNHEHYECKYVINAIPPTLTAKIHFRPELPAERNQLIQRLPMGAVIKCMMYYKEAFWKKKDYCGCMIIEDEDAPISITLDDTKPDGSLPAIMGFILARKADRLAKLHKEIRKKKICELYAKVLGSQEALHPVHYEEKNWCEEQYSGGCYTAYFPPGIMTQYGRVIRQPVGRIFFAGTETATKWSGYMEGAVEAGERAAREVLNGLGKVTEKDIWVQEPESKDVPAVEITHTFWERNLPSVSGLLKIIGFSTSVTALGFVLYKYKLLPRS", "conditions": "cited from earlier work"}, "[6]": {"molecular_target": "T2, monoamine oxidase B (MAO-B) (Homo sapiens, UniProt P27338)", "T2 sequence (P27338 1-520)": "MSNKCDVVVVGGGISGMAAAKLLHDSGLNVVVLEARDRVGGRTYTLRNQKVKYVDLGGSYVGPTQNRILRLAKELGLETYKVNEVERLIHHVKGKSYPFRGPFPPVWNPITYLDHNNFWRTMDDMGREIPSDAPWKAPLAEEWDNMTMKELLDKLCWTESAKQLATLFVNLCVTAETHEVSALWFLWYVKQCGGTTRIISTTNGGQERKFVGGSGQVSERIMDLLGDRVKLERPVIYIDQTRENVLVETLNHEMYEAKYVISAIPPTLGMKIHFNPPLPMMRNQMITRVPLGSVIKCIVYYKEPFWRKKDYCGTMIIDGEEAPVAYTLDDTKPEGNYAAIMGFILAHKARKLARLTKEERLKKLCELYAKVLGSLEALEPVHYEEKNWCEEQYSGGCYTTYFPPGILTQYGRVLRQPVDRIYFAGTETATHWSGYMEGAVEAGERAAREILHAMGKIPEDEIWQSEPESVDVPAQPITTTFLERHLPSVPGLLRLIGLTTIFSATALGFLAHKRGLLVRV", "conditions": "cited from earlier work"}, "hepatic enzyme CYP2D6": {"molecular_target": "hepatic enzyme CYP2D6 (Homo sapiens, UniProt P10635)", "sequence (P10635 whole entry)": "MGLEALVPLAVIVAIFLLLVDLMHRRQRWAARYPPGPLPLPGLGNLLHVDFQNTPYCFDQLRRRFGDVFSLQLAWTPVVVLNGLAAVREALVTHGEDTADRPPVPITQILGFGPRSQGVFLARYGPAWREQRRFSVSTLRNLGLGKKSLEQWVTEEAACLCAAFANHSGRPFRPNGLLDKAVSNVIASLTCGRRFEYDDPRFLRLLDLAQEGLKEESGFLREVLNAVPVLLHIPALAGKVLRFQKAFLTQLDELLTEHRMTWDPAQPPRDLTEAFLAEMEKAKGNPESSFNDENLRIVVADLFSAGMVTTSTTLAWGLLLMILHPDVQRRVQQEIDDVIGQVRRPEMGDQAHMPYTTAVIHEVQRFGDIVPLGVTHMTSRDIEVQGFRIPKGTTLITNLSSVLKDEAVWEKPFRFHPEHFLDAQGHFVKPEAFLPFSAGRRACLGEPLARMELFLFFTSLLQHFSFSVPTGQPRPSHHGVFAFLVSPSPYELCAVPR", "conditions": "cited from earlier work"}, "[7]": {"assay": "peroral pharmahuasca study: DMT and harmine concentrations in plasma", "conditions": "male, human, oral"}}}
{"smiles": "COc1ccc2c(c1)[nH]c1c(C)nccc12.O=S(=O)(O)O", "note": "[harmine sulfate]", "values": [{"measurement": "solubility", "setting": "[1]", "value": "≤ 35", "unit": "mg/mL"}, {"measurement": "burning sensation on nasal application", "setting": "[2]", "value": "intense burning sensation"}]}
{"smiles": "COc1ccc2c(c1)[nH]c1c(C)nccc12.O=C(O)CC(O)(CC(=O)O)C(=O)O", "note": "[harmine citrate]", "values": [{"measurement": "solubility", "setting": "[1]", "value": "≤ 35", "unit": "mg/mL"}, {"measurement": "burning sensation on nasal application", "setting": "[2]", "value": "intense burning sensation"}]}
{"smiles": "COc1ccc2c(c1)[nH]c1c(C)nccc12.O=C(O)/C=C/C(=O)O", "note": "[harmine fumarate]", "values": [{"measurement": "solubility", "setting": "[1]", "value": "≤ 35", "unit": "mg/mL"}, {"measurement": "burning sensation on nasal application", "setting": "[2]", "value": "intense burning sensation"}]}
{"smiles": "COc1ccc2c(c1)[nH]c1c(C)nccc12.Cl", "note": "[harmine HCl, Harmine hydrochloride]", "values": [{"measurement": "solubility", "setting": "[1]", "value": "≤ 35", "unit": "mg/mL"}, {"measurement": "burning sensation on nasal application", "setting": "[2]", "value": "intense burning sensation"}, {"measurement": "bioavailability (area under the curve; AUC) compared to oral administration", "setting": "[3]", "value": "substantially higher"}]}
{"smiles": "CN(C)CCc1c[nH]c2ccccc12.O=C(O)/C=C/C(=O)O", "note": "[DMT fumarate, N,N-dimethyltryptamine fumarate]", "values": [{"measurement": "solubility (in words)", "setting": "[1]", "value": "high"}, {"measurement": "solubility", "setting": "[1]", "value": "> 35", "unit": "mg/mL"}, {"measurement": "transmucosal absorption", "setting": "[4]", "value": "efficient"}, {"measurement": "bioavailability (area under the curve; AUC) compared to oral administration", "setting": "[3]", "value": "substantially higher"}]}
{"smiles": "CN(C)CCc1c[nH]c2ccccc12", "note": "[DMT, N,N-Dimethyltryptamine]", "values": [{"measurement": "burning sensation when administered buccally", "setting": "[2]; buccal, basic corrosion of the oral mucosa", "value": "burning sensation"}, {"measurement": "variation of peak plasma concentrations (cmax), extensive vs. poor metabolizers, factor", "setting": "[3]", "value": "~2.3"}]}
{"smiles": "COc1ccc2c(c1)[nH]c1c(C)nccc12", "note": "[harmine, 7-Methoxy-1-methyl-9H-pyrido[3,4-b]indol]", "values": [{"measurement": "inhibition of MAO-A", "setting": "[5]", "value": "reversibly inhibits"}, {"measurement": "inhibition of MAO-B", "setting": "[6]", "value": "does not inhibit"}, {"measurement": "degradation by CYP2D6", "setting": "hepatic enzyme CYP2D6", "value": "mainly degraded"}, {"measurement": "solubility (in words)", "setting": "[1]", "value": "very low"}, {"measurement": "Tmax", "setting": "[7]", "value": "1 to 4.5", "unit": "h"}, {"measurement": "variation of peak plasma concentrations (cmax), extensive vs. poor metabolizers, factor", "setting": "[3]", "value": "~3.2"}]}
{"smiles": "CC(=O)O.COc1ccc2c(c1)[nH]c1c(C)nccc12", "note": "[harmine acetate]", "values": [{"measurement": "solubility", "setting": "[1]", "value": "≤ 35", "unit": "mg/mL"}, {"measurement": "burning sensation on nasal application", "setting": "[2]", "value": "intense burning sensation"}]}
